Active and inactive are the calls of the source.
Assays:
[1] = target: T1, Sentrin-specific protease 8 (Homo sapiens, UniProt Q96LD8); assay: SENP8 protease inhibitors, SAR follow-up, biochemical, luminescence (AID 504501); format: functional
T1 sequence (Q96LD8 whole entry): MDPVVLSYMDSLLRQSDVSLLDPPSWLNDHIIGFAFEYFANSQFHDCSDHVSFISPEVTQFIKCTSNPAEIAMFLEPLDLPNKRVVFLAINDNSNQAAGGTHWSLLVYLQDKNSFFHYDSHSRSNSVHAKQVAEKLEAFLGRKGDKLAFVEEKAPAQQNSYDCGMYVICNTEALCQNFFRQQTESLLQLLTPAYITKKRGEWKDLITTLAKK

[2] = target: Tyrosyl-DNA phosphodiesterase 2 (Homo sapiens, UniProt O95551); assay: human TDP2 enzyme inhibitors, dose response, biochemical, epi absorbance, IC50 (AID 743297)
Sequence of Tyrosyl-DNA phosphodiesterase 2 (O95551 whole entry): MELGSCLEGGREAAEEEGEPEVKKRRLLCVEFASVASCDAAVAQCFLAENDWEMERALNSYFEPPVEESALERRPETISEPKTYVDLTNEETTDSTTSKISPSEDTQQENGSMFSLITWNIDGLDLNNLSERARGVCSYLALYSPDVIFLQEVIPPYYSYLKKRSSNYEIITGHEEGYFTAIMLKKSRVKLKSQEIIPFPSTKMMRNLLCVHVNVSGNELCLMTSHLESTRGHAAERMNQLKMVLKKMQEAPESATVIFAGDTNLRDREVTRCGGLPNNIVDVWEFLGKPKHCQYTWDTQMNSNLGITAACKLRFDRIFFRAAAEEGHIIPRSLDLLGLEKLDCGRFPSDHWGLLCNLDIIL

[3] = target: T2, Sentrin-specific protease 7 (Homo sapiens, UniProt Q9BQF6); assay: SENP7 protease inhibitors, SAR follow-up, biochemical, luminescence (AID 504497); format: functional
T2 sequence (Q9BQF6 whole entry): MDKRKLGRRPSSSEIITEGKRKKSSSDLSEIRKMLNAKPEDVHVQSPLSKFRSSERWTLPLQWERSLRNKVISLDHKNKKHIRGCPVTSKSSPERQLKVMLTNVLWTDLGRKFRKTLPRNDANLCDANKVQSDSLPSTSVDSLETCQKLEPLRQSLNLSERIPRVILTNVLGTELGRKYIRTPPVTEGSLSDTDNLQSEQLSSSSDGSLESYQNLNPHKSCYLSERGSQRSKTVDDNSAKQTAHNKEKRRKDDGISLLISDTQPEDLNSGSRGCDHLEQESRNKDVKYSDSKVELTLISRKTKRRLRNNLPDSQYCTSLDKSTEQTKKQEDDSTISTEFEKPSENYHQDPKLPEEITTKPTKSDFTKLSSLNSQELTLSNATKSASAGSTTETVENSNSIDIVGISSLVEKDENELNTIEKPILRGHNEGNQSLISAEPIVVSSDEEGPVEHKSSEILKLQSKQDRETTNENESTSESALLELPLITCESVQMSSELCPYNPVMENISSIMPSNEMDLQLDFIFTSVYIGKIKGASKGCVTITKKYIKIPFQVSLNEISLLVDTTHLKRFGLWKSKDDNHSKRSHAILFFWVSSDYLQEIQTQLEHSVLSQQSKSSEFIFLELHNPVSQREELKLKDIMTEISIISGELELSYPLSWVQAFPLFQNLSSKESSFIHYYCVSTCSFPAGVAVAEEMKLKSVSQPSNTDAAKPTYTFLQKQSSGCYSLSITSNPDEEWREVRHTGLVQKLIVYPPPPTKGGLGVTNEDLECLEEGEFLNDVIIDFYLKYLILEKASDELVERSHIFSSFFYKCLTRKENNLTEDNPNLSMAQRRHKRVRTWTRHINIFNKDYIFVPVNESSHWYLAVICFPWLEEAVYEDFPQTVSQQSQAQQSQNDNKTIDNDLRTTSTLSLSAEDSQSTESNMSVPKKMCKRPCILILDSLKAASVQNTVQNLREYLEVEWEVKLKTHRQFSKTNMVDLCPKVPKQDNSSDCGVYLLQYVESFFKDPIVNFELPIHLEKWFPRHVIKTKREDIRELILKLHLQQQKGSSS

[4] = target: T3, Streptokinase A (Streptococcus pyogenes serotype M1, UniProt P10520); assay: S. pyogenes streptokinase expression inhibitors, potency, dose response, plasminogen activation absorbance, OD405 (AID 1914); format: functional, Streptococcus pyogenes M1 GAS;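 also: secreted streptokinase activity via plasminogen activation per viability signal from cell pellet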
T3 sequence (P10520 whole entry): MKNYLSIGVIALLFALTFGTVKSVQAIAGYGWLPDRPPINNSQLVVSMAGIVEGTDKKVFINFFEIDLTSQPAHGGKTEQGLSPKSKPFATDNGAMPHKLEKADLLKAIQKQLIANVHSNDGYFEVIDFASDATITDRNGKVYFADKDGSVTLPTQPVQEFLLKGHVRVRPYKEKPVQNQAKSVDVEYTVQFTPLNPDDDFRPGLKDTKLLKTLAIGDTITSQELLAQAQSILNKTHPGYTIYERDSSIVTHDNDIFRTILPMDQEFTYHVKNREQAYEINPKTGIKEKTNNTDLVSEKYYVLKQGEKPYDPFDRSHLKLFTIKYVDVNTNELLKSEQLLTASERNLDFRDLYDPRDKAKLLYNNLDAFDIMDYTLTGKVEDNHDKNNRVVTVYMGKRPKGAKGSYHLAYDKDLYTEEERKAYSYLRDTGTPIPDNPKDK

[5] = test system: Streptococcus sp. 'group A'; assay: growth inhibition of control SK(-) GAS strain, dose response, counter-screen for streptokinase expression inhibitor project, luminescence, kanamycin, BacTiterGlo, confirmation (AID 1900); format: functional, organism-based; conditions: Streptococcus sp. 'group A'
[6] = target: Small ubiquitin-related modifier 2 (Homo sapiens, UniProt P61956); assay: inhibitors of SUMO2 protein-protein interaction, dose response, selectivity assay for SUMO1 interaction inhibitor project, biochemical, FRET, human SUMO2, uHTS hits (AID 624384); format: functional; conditions: read-out: IC50_Mean
Sequence of Small ubiquitin-related modifier 2 (P61956 whole entry): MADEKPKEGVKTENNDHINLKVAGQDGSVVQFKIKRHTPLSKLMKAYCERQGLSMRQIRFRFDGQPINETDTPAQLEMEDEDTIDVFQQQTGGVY

[7] = target: Genome polyprotein (dengue virus type 2, UniProt P29990); assay: Dengue-2 NS5 methyltransferase inhibitors, primary screen, biochemical, confirmation dose response (AID 588689); format: functional
Sequence of Genome polyprotein (P29990 2492-3391 limits assumed): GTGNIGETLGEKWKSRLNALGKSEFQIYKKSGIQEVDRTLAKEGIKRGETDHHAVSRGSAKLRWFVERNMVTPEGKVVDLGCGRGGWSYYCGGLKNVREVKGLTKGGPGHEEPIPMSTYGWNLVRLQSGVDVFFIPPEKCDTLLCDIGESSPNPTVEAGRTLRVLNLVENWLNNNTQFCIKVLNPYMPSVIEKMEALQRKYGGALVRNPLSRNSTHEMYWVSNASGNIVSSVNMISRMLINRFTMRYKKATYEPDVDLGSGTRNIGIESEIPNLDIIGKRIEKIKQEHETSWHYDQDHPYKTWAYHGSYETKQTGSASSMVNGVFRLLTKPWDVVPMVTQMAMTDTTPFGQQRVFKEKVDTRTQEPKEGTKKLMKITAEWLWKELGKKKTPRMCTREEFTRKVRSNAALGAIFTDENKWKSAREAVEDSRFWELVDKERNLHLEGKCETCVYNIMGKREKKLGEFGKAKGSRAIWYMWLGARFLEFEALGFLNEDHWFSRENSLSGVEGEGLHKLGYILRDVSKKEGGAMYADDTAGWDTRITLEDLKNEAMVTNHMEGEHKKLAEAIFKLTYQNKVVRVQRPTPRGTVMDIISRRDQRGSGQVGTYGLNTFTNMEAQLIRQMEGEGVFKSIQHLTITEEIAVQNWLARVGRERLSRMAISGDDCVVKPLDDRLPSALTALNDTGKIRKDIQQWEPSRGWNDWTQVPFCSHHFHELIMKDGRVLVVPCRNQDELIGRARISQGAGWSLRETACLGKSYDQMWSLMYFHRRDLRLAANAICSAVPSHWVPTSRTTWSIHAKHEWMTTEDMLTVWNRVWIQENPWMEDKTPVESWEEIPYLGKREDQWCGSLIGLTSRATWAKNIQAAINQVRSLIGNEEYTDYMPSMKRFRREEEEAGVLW

[8] = test system: Streptococcus; assay: Group A Streptococcus viability loss, dose response, counter-screen for streptokinase expression inhibitor project, luminescence, BacTiterGlo (AID 1915); format: functional, organism-based; conditions: Streptococcus;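 also: potency for reduction of bacterial viability or growth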
[9] = Luminescence Cell-Based Dose Response HTS to Identify Activators of 5'UTR Stem-Loop Driven Prion Protein mRNA Translation in H4-C Neuroglioblastoma Cells. [Related pubchem assays: 1829 (Project Summary), 1814 (Primary HTS)]; format: functional
[10] = Luminescence Cell-Based Dose Confirmation HTS to Identify Activators of 5'UTR Stem-Loop Driven Alpha-Synuclein mRNA Translation in H4 Neuroglioblastoma Cells. [Related pubchem assays: 1829 (Project Summary), 1814 (Primary HTS)]; format: functional
[11] = cytotoxicity toward NIH3T3 fibroblasts, dose response, counter-screen, cell-based, ATP luminescence, mouse fibroblasts (AID 2010); format: functional;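 also: cells exposed to compound for about 90 hours before reading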
[12] = inhibitors of intracellular T. cruzi replication, confirmation, NIH3T3 host cells, beta-gal luminescence (AID 2044); format: functional, cell-based;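 also: intracellular parasites grown in NIH/3T3 mouse fibroblasts as host cells; luminescent beta-galactosidase reporter signal from transgenic T. cruzi replicating inside host cells; inhibitors lower the luminescence signal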
[13] = Luminescence Cell-Based Dose Retest to Confirm Activators of 5'UTR Stem-Loop Driven Alpha-Synuclein mRNA Translation in H4 Neuroglioblastoma Cells. [Related pubchem assays (depositor defined):AID1813, AID1829]; format: functional
[14] = A cytotoxicity screen of small molecule inhibitors of the PhoP region in Salmonella typhi identified in the primary screen. [Related pubchem assays: 1850, 1864, 1985 ]; format: functional

Which IC50 [1] does the source give for COc1cc(C(=O)c2nccc3cc(OC)c(OC)cc23)c([N+](=O)[O-])cc1OC here?
Its IC50 is > 99 µM (inactive).

And the IC50 [2]?
Its IC50 is > 128 µM (inactive).

And the IC50 [3]?
The IC50 was 24.6 µM (active).

For N#Cc1c(O)nc(SCC(=O)N2c3ccccc3Sc3ccccc32)nc1-c1ccccc1, which EC50 [4] is on record?
The EC50 was > 150 µM (not active).

And the EC50 [5]?
Its EC50 is 5.6 µM (active).

What about the IC50 [6] of the same compound?
The IC50 was 23.1 µM (inactive).

And the IC50 [7]?
The IC50 was 38.9 µM (active).

And the EC50 [8]?
Its EC50 is 13.9 µM (active).

With c1ccc2c(Nc3nnc(-c4ccncc4)s3)cccc2c1 as the compound, how does the EC50 [9] read?
The EC50 was 40 µM (active).

What about the EC50 [10] of the same compound?
The EC50 was 0.196 µM (active).

And the EC50 [11]?
Its EC50 is > 60 µM (not active).

What about the EC50 [12] of the same compound?
Its EC50 is 1.59 µM (active).

What about the EC50 [13] of the same compound?
The EC50 was 2.04 µM (active).

What about the EC50 [14] of the same compound?
The EC50 was > 50 µM (active).
